Source: PubChem BioAssay (NCI)
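All cell lines were grown in 96-well plates and treated with compound for 48 hours. At the TGI there is no net growth.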

Experiments:
Experiment in all cases: growth of human tumour cells (NCI), 48 h
MALME-3M melanoma = system: MALME-3M melanoma
NCI-H23 lung = system: NCI-H23 lung
UACC-257 melanoma = system: UACC-257 melanoma
SK-MEL-2 melanoma = system: SK-MEL-2 melanoma
SK-MEL-28 melanoma = system: SK-MEL-28 melanoma
SN12C renal = system: SN12C renal
MOLT-4 leukemia = system: MOLT-4 leukemia
OVCAR-3 ovarian = system: OVCAR-3 ovarian
A549 NSCLC = system: A549 NSCLC
OVCAR-5 ovarian = system: OVCAR-5 ovarian
DLD-1 colon = system: DLD-1 colon
SF-295 CNS = system: SF-295 CNS
RPMI-8226 leukemia = system: RPMI-8226 leukemia
ACHN renal = system: ACHN renal
OVCAR-8 ovarian = system: OVCAR-8 ovarian
TK-10 renal = system: TK-10 renal
M14 melanoma = system: M14 melanoma
NCI-H226 lung = system: NCI-H226 lung
CCRF-CEM leukemia = system: CCRF-CEM leukemia
DMS 273 small cell lung = system: DMS 273 small cell lung
CAKI-1 renal = system: CAKI-1 renal
SNB-19 CNS = system: SNB-19 CNS
HOP-92 NSCLC = system: HOP-92 NSCLC
U251 CNS = system: U251 CNS
HOP-18 NSCLC = system: HOP-18 NSCLC
M19-MEL melanoma = system: M19-MEL melanoma
HCT-15 colon = system: HCT-15 colon
HL-60(TB) leukemia = system: HL-60(TB) leukemia
SK-OV-3 ovarian = system: SK-OV-3 ovarian
SF-268 CNS = system: SF-268 CNS
EKVX NSCLC = system: EKVX NSCLC
UO-31 renal = system: UO-31 renal
COLO 205 colon = system: COLO 205 colon
SNB-78 CNS = system: SNB-78 CNS
DMS 114 small cell lung = system: DMS 114 small cell lung
SK-MEL-5 melanoma = system: SK-MEL-5 melanoma
HCT-116 colon = system: HCT-116 colon
KM12 colon = system: KM12 colon
IGROV1 ovarian = system: IGROV1 ovarian
786-0 renal = system: 786-0 renal
HT29 colon = system: HT29 colon
NCI-H460 lung = system: NCI-H460 lung
SNB-75 CNS = system: SNB-75 CNS
HCC-2998 colon = system: HCC-2998 colon
HOP-62 NSCLC = system: HOP-62 NSCLC
SF-539 CNS = system: SF-539 CNS
LXFL 529 NSCLC = system: LXFL 529 NSCLC
K-562 leukemia = system: K-562 leukemia
NCI-H522 lung = system: NCI-H522 lung
SW-620 colon = system: SW-620 colon
OVCAR-4 ovarian = system: OVCAR-4 ovarian
LOX IMVI melanoma = system: LOX IMVI melanoma
KM20L2 colon = system: KM20L2 colon
UACC-62 melanoma = system: UACC-62 melanoma
RXF 393 renal = system: RXF 393 renal
A498 renal = system: A498 renal

Cn1c2ccccc2c2ccc3c(c21)C(=O)C(c1ccccc1)=CC3=O
TGI (MALME-3M melanoma): 84.4 µM
TGI (NCI-H23 lung): > 100 µM
TGI (UACC-257 melanoma): > 100 µM
TGI (SK-MEL-2 melanoma): 45.3 µM
TGI (SK-MEL-28 melanoma): 51 µM
TGI (SN12C renal): 52.3 µM
TGI (MOLT-4 leukemia): > 100 µM
TGI (OVCAR-3 ovarian): 79.2 µM
TGI (A549 NSCLC): > 100 µM
TGI (OVCAR-5 ovarian): > 100 µM
TGI (DLD-1 colon): 64.6 µM
TGI (SF-295 CNS): > 100 µM
TGI (RPMI-8226 leukemia): 99.2 µM
TGI (ACHN renal): > 100 µM
TGI (OVCAR-8 ovarian): 42.6 µM
TGI (TK-10 renal): > 100 µM
TGI (M14 melanoma): > 100 µM
TGI (NCI-H226 lung): 40.7 µM
TGI (CCRF-CEM leukemia): > 100 µM
TGI (DMS 273 small cell lung): 84 µM
TGI (CAKI-1 renal): > 100 µM
TGI (SNB-19 CNS): > 100 µM
TGI (HOP-92 NSCLC): 56.2 µM
TGI (U251 CNS): > 100 µM
TGI (HOP-18 NSCLC): 5.51 µM
TGI (M19-MEL melanoma): 59.9 µM
TGI (HCT-15 colon): 22.2 µM
TGI (HL-60(TB) leukemia): > 100 µM
TGI (SK-OV-3 ovarian): > 100 µM
TGI (SF-268 CNS): > 100 µM
TGI (EKVX NSCLC): 75.2 µM
TGI (UO-31 renal): > 100 µM
TGI (COLO 205 colon): > 100 µM
TGI (SNB-78 CNS): > 100 µM
TGI (DMS 114 small cell lung): 43.2 µM
TGI (SK-MEL-5 melanoma): 87.5 µM
TGI (HCT-116 colon): 38.2 µM
TGI (KM12 colon): > 100 µM
TGI (IGROV1 ovarian): 39.3 µM
TGI (786-0 renal): 32.8 µM
TGI (HT29 colon): > 100 µM
TGI (NCI-H460 lung): > 100 µM
TGI (SNB-75 CNS): > 100 µM
TGI (HCC-2998 colon): 56.4 µM
TGI (HOP-62 NSCLC): > 100 µM
TGI (SF-539 CNS): 47.2 µM
TGI (LXFL 529 NSCLC): 33.5 µM
TGI (K-562 leukemia): > 100 µM
TGI (NCI-H522 lung): 40.2 µM

N#CC1(C#N)C=CC(=C2OCC3CCCN23)C=C1 (stereo unspecified)
TGI (MALME-3M melanoma): > 100 µM
TGI (UACC-257 melanoma): > 100 µM
TGI (SK-MEL-2 melanoma): > 100 µM
TGI (SN12C renal): > 100 µM
TGI (SW-620 colon): > 100 µM
TGI (MOLT-4 leukemia): > 100 µM
TGI (A549 NSCLC): > 100 µM
TGI (OVCAR-5 ovarian): > 100 µM
TGI (DLD-1 colon): > 100 µM
TGI (SF-295 CNS): > 100 µM
TGI (RPMI-8226 leukemia): > 100 µM
TGI (OVCAR-4 ovarian): > 100 µM
TGI (ACHN renal): > 100 µM
TGI (OVCAR-8 ovarian): > 100 µM
TGI (TK-10 renal): > 100 µM
TGI (M14 melanoma): > 100 µM
TGI (NCI-H226 lung): > 100 µM
TGI (CCRF-CEM leukemia): > 100 µM
TGI (DMS 273 small cell lung): > 100 µM
TGI (CAKI-1 renal): > 100 µM
TGI (SNB-19 CNS): > 100 µM
TGI (HOP-92 NSCLC): > 100 µM
TGI (U251 CNS): > 100 µM
TGI (HOP-18 NSCLC): > 100 µM
TGI (M19-MEL melanoma): > 100 µM
TGI (HCT-15 colon): > 100 µM
TGI (HL-60(TB) leukemia): > 100 µM
TGI (SK-OV-3 ovarian): > 100 µM
TGI (SF-268 CNS): > 100 µM
TGI (LOX IMVI melanoma): > 100 µM
TGI (UO-31 renal): > 100 µM
TGI (COLO 205 colon): > 100 µM
TGI (SNB-78 CNS): > 100 µM
TGI (DMS 114 small cell lung): > 100 µM
TGI (SK-MEL-5 melanoma): > 100 µM
TGI (HCT-116 colon): > 100 µM
TGI (KM12 colon): > 100 µM
TGI (IGROV1 ovarian): > 100 µM
TGI (786-0 renal): > 100 µM
TGI (KM20L2 colon): > 100 µM
TGI (UACC-62 melanoma): > 100 µM
TGI (HT29 colon): > 100 µM
TGI (NCI-H460 lung): > 100 µM
TGI (SNB-75 CNS): > 100 µM
TGI (HCC-2998 colon): > 100 µM
TGI (HOP-62 NSCLC): > 100 µM
TGI (RXF 393 renal): > 100 µM
TGI (SF-539 CNS): > 100 µM
TGI (LXFL 529 NSCLC): > 100 µM
TGI (K-562 leukemia): > 100 µM
TGI (NCI-H522 lung): > 100 µM
TGI (A498 renal): > 100 µM
